Where “and” joins values, the source holds several entries; their conditions need not be identical. Identical values can stand only once.
Legend:
SfurOBP11 = SfurOBP11 (Sogatella furcifera, UniProt V5T6E3); test: biochemical; format: binding
Procedure, shortened: (§1)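 Protein 2.0 µM + 1-NPN 2.0 µM, 50 mM Tris-HCl pH 7.4; competitor odorants 2, 4 … 20 µM final; read 2 min post-addition, ex 337/em 390–490 nm; n=3. K1-NPN from 1-NPN titration/Scatchard; Ki from IC50 corrected for free 1-NPN.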

SfurOBP1 = SfurOBP1 (Sogatella furcifera, UniProt V5T8N5); test: biochemical; format: binding; details: for Fluorescence competitive binding assay, fluorescence intensity: OBP1, three replicate columns
Sequence of SfurOBP1 (V5T8N5 entry or part of it): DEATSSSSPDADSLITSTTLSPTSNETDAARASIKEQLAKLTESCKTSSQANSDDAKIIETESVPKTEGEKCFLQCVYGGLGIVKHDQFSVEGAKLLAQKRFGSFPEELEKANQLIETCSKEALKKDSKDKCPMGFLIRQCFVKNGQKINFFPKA
Procedure, shortened: as §1

SfurOBP3 = SfurOBP3 (Sogatella furcifera, UniProt V5T818); test: biochemical; format: binding; details: for Fluorescence competitive binding assay, fluorescence intensity: OBP3, three replicate columns
Sequence of SfurOBP3 (V5T818 entry or part of it): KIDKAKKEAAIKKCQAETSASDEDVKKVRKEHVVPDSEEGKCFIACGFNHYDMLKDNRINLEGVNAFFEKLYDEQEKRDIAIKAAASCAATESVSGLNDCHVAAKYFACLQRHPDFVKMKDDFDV
Procedure, shortened: as §1

SfurOBP2 = SfurOBP2 (Sogatella furcifera, UniProt V5T759); test: biochemical; format: binding
Sequence of SfurOBP2 (V5T759 entry or part of it): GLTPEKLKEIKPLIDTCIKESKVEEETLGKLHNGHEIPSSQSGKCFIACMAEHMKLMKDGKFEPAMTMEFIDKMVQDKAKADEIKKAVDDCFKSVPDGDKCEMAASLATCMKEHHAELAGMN
Procedure, shortened: as §1

S. furcifera adults = test: Y-tube olfactometer behavioral trials; format: in vivo, Sogatella furcifera; details: odorant 50 µL/L vs hexane; adults
Experimental: To test the effect of the rice odorants on the behavior of S. furcifera adults, a glass Y-tube olfactometer (inner diameter 2.0 cm, stem 13 cm, arms 10 cm, angle of arms 60°) according to the previously described ([Wang et al., 2014b]) was employed. An airtight cubic box (70 by 45 by 30 cm) was used to position Y-tube, and the Y-tube was lighted by a 30-W filament lamp 25 cm above it. Air that filtered through activated charcoal and humidified with doubly distilled water was pumped in both arms at a flow rate of 300 mL/min. Two filter paper strips (10 by 1 cm) containing 100 µL odorant source (50 µL/L) and 100 µL control hexane were placed in two holding chambers in the front of the olfactometer, respectively. A S. furcifera adult (2 days after emergence, starved for 0.5 h) was randomly chosen and placed in the stem of the Y-tube. Each insect was given 10 min to choose between the two arms of the Y-tube, the choice was noted if the planthopper reached one-half of the arms’ lengths and stayed in the arm for more than 1 min. Besides, S. furcifera was considered as having no orientation preference. Forty-five individuals were used for each compound, each insect used only once. And the dual-choice experiment was done in an environmentally controlled room (25 ± 1 °C and 50% RH). A Chi-squared test was used to analyze the behavioral assay data by using SPSS19.0 (SPSS Inc., Chicago, IL, USA) software.

Sequence of SfurOBP11 (V5T6E3 entry or part of it): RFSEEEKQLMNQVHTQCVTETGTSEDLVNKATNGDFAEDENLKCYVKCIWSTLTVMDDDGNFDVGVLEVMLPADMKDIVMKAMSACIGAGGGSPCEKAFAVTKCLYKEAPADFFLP

## O=Cc1ccccc1 [benzaldehyde]
SfurOBP11
  IC50: > 20 µM
SfurOBP11; ligand concentration 2, replicate 1
  Fluorescence intensity, fluorescence competitive binding assay, OBP11: 25700
SfurOBP11; ligand concentration 2, replicate 2
  Fluorescence intensity, fluorescence competitive binding assay, OBP11: 26420
SfurOBP11; ligand concentration 2, replicate 3
  Fluorescence intensity, fluorescence competitive binding assay, OBP11: 26489
SfurOBP11; ligand concentration 4, replicate 1
  Fluorescence intensity, fluorescence competitive binding assay, OBP11: 25103
SfurOBP11; ligand concentration 4, replicate 2
  Fluorescence intensity, fluorescence competitive binding assay, OBP11: 25939
SfurOBP11; ligand concentration 4, replicate 3
  Fluorescence intensity, fluorescence competitive binding assay, OBP11: 26917
SfurOBP11; ligand concentration 6, replicate 1
  Fluorescence intensity, fluorescence competitive binding assay, OBP11: 24540
SfurOBP11; ligand concentration 6, replicate 2
  Fluorescence intensity, fluorescence competitive binding assay, OBP11: 24263
SfurOBP11; ligand concentration 6, replicate 3
  Fluorescence intensity, fluorescence competitive binding assay, OBP11: 26004
SfurOBP11; ligand concentration 8, replicate 1
  Fluorescence intensity, fluorescence competitive binding assay, OBP11: 24810
SfurOBP11; ligand concentration 8, replicate 2
  Fluorescence intensity, fluorescence competitive binding assay, OBP11: 23717
SfurOBP11; ligand concentration 8, replicate 3
  Fluorescence intensity, fluorescence competitive binding assay, OBP11: 25921
SfurOBP11; ligand concentration 10, replicate 1
  Fluorescence intensity, fluorescence competitive binding assay, OBP11: 21750
SfurOBP11; ligand concentration 10, replicate 2
  Fluorescence intensity, fluorescence competitive binding assay, OBP11: 22655
SfurOBP11; ligand concentration 10, replicate 3
  Fluorescence intensity, fluorescence competitive binding assay, OBP11: 24544
SfurOBP11; ligand concentration 12, replicate 1
  Fluorescence intensity, fluorescence competitive binding assay, OBP11: 22377
SfurOBP11; ligand concentration 12, replicate 2
  Fluorescence intensity, fluorescence competitive binding assay, OBP11: 22204
SfurOBP11; ligand concentration 12, replicate 3
  Fluorescence intensity, fluorescence competitive binding assay, OBP11: 22549
SfurOBP11; ligand concentration 14, replicate 1
  Fluorescence intensity, fluorescence competitive binding assay, OBP11: 20889
SfurOBP11; ligand concentration 14, replicate 2
  Fluorescence intensity, fluorescence competitive binding assay, OBP11: 20823
SfurOBP11; ligand concentration 14, replicate 3
  Fluorescence intensity, fluorescence competitive binding assay, OBP11: 20954
SfurOBP11; ligand concentration 16, replicate 1
  Fluorescence intensity, fluorescence competitive binding assay, OBP11: 18305
SfurOBP11; ligand concentration 16, replicate 2
  Fluorescence intensity, fluorescence competitive binding assay, OBP11: 18429
SfurOBP11; ligand concentration 16, replicate 3
  Fluorescence intensity, fluorescence competitive binding assay, OBP11: 20008
SfurOBP11; ligand concentration 18, replicate 1
  Fluorescence intensity, fluorescence competitive binding assay, OBP11: 18084
SfurOBP11; ligand concentration 18, replicate 2
  Fluorescence intensity, fluorescence competitive binding assay, OBP11: 18788
SfurOBP11; ligand concentration 18, replicate 3
  Fluorescence intensity, fluorescence competitive binding assay, OBP11: 18463
SfurOBP11; ligand concentration 20, replicate 1
  Fluorescence intensity, fluorescence competitive binding assay, OBP11: 17844
SfurOBP11; ligand concentration 20, replicate 2
  Fluorescence intensity, fluorescence competitive binding assay, OBP11: 18414
SfurOBP11; ligand concentration 20, replicate 3
  Fluorescence intensity, fluorescence competitive binding assay, OBP11: 17540
SfurOBP1
  IC50: > 20 µM
SfurOBP1; ligand concentration 2 (μM)
  Fluorescence competitive binding assay, fluorescence intensity: 6748 and 7004 and 6492
SfurOBP1; ligand concentration 4 (μM)
  Fluorescence competitive binding assay, fluorescence intensity: 7245 and 7115 and 7374
SfurOBP1; ligand concentration 6 (μM)
  Fluorescence competitive binding assay, fluorescence intensity: 6061 and 6132 and 7040
SfurOBP1; ligand concentration 8 (μM)
  Fluorescence competitive binding assay, fluorescence intensity: 7119 and 7198 and 8488
SfurOBP1; ligand concentration 10 (μM)
  Fluorescence competitive binding assay, fluorescence intensity: 6689 and 6820 and 6663
SfurOBP1; ligand concentration 12 (μM)
  Fluorescence competitive binding assay, fluorescence intensity: 6039 and 7567 and 5952
SfurOBP1; ligand concentration 14 (μM)
  Fluorescence competitive binding assay, fluorescence intensity: 5985 and 6868 and 6969
SfurOBP1; ligand concentration 16 (μM)
  Fluorescence competitive binding assay, fluorescence intensity: 5390 and 5637 and 6081
SfurOBP1; ligand concentration 18 (μM)
  Fluorescence competitive binding assay, fluorescence intensity: 7493 and 9048 and 6239
SfurOBP1; ligand concentration 20 (μM)
  Fluorescence competitive binding assay, fluorescence intensity: 8583 and 7861 and 5961
SfurOBP3
  IC50: > 20 µM
SfurOBP3; ligand concentration 2
  Fluorescence competitive binding assay, fluorescence intensity: 45330 and 44709 and 45950
SfurOBP3; ligand concentration 4
  Fluorescence competitive binding assay, fluorescence intensity: 42404 and 44063 and 46652
SfurOBP3; ligand concentration 6
  Fluorescence competitive binding assay, fluorescence intensity: 42957 and 46006 and 45764
SfurOBP3; ligand concentration 8
  Fluorescence competitive binding assay, fluorescence intensity: 41484 and 44807 and 44761
SfurOBP3; ligand concentration 10
  Fluorescence competitive binding assay, fluorescence intensity: 42296 and 40919 and 43670
SfurOBP3; ligand concentration 12
  Fluorescence competitive binding assay, fluorescence intensity: 40362 and 40474 and 40259
SfurOBP3; ligand concentration 14
  Fluorescence competitive binding assay, fluorescence intensity: 36140 and 35545 and 34940
SfurOBP3; ligand concentration 16
  Fluorescence competitive binding assay, fluorescence intensity: 32608 and 31985 and 31371
SfurOBP3; ligand concentration 18
  Fluorescence competitive binding assay, fluorescence intensity: 31185 and 31705 and 30913
SfurOBP3; ligand concentration 20
  Fluorescence competitive binding assay, fluorescence intensity: 30533 and 30370 and 31330
SfurOBP2
  IC50: > 20 µM
SfurOBP2; ligand concentration 2 (unit not given), replicate column 1 of 3
  Fluorescence competitive binding assay, OBP2 (raw fluorescence reading): 15507
SfurOBP2; ligand concentration 2 (unit not given), replicate column 2 of 3
  Fluorescence competitive binding assay, OBP2 (raw fluorescence reading): 14848
SfurOBP2; ligand concentration 2 (unit not given), replicate column 3 of 3
  Fluorescence competitive binding assay, OBP2 (raw fluorescence reading): 15027
SfurOBP2; ligand concentration 4 (unit not given), replicate column 1 of 3
  Fluorescence competitive binding assay, OBP2 (raw fluorescence reading): 14937
SfurOBP2; ligand concentration 4 (unit not given), replicate column 2 of 3
  Fluorescence competitive binding assay, OBP2 (raw fluorescence reading): 13962
SfurOBP2; ligand concentration 4 (unit not given), replicate column 3 of 3
  Fluorescence competitive binding assay, OBP2 (raw fluorescence reading): 14585
SfurOBP2; ligand concentration 6 (unit not given), replicate column 1 of 3
  Fluorescence competitive binding assay, OBP2 (raw fluorescence reading): 13559
SfurOBP2; ligand concentration 6 (unit not given), replicate column 2 of 3
  Fluorescence competitive binding assay, OBP2 (raw fluorescence reading): 14529
SfurOBP2; ligand concentration 6 (unit not given), replicate column 3 of 3
  Fluorescence competitive binding assay, OBP2 (raw fluorescence reading): 14868
SfurOBP2; ligand concentration 8 (unit not given), replicate column 1 of 3
  Fluorescence competitive binding assay, OBP2 (raw fluorescence reading): 13310
SfurOBP2; ligand concentration 8 (unit not given), replicate column 2 of 3
  Fluorescence competitive binding assay, OBP2 (raw fluorescence reading): 14622
SfurOBP2; ligand concentration 8 (unit not given), replicate column 3 of 3
  Fluorescence competitive binding assay, OBP2 (raw fluorescence reading): 14449
SfurOBP2; ligand concentration 10 (unit not given), replicate column 1 of 3
  Fluorescence competitive binding assay, OBP2 (raw fluorescence reading): 13559
SfurOBP2; ligand concentration 10 (unit not given), replicate column 2 of 3
  Fluorescence competitive binding assay, OBP2 (raw fluorescence reading): 13459
SfurOBP2; ligand concentration 10 (unit not given), replicate column 3 of 3
  Fluorescence competitive binding assay, OBP2 (raw fluorescence reading): 14101
SfurOBP2; ligand concentration 12 (unit not given), replicate column 1 of 3
  Fluorescence competitive binding assay, OBP2 (raw fluorescence reading): 13500
SfurOBP2; ligand concentration 12 (unit not given), replicate column 2 of 3
  Fluorescence competitive binding assay, OBP2 (raw fluorescence reading): 13742
SfurOBP2; ligand concentration 12 (unit not given), replicate column 3 of 3
  Fluorescence competitive binding assay, OBP2 (raw fluorescence reading): 13318
SfurOBP2; ligand concentration 14 (unit not given), replicate column 1 of 3
  Fluorescence competitive binding assay, OBP2 (raw fluorescence reading): 12764
SfurOBP2; ligand concentration 14 (unit not given), replicate column 2 of 3
  Fluorescence competitive binding assay, OBP2 (raw fluorescence reading): 13284
SfurOBP2; ligand concentration 14 (unit not given), replicate column 3 of 3
  Fluorescence competitive binding assay, OBP2 (raw fluorescence reading): 13618
SfurOBP2; ligand concentration 16 (unit not given), replicate column 1 of 3
  Fluorescence competitive binding assay, OBP2 (raw fluorescence reading): 12066
SfurOBP2; ligand concentration 16 (unit not given), replicate column 2 of 3
  Fluorescence competitive binding assay, OBP2 (raw fluorescence reading): 12546
SfurOBP2; ligand concentration 16 (unit not given), replicate column 3 of 3
  Fluorescence competitive binding assay, OBP2 (raw fluorescence reading): 12131
SfurOBP2; ligand concentration 18 (unit not given), replicate column 1 of 3
  Fluorescence competitive binding assay, OBP2 (raw fluorescence reading): 11847
SfurOBP2; ligand concentration 18 (unit not given), replicate column 2 of 3
  Fluorescence competitive binding assay, OBP2 (raw fluorescence reading): 12489
SfurOBP2; ligand concentration 18 (unit not given), replicate column 3 of 3
  Fluorescence competitive binding assay, OBP2 (raw fluorescence reading): 12075
SfurOBP2; ligand concentration 20 (unit not given), replicate column 1 of 3
  Fluorescence competitive binding assay, OBP2 (raw fluorescence reading): 11984
SfurOBP2; ligand concentration 20 (unit not given), replicate column 2 of 3
  Fluorescence competitive binding assay, OBP2 (raw fluorescence reading): 12356
SfurOBP2; ligand concentration 20 (unit not given), replicate column 3 of 3
  Fluorescence competitive binding assay, OBP2 (raw fluorescence reading): 11918
S. furcifera adults
  number of insects choosing hexane arm: 10
  number of insects choosing volatilies arm: 7
  number of insects failed (no choice): 23

Reference: publication PMC6409085, “Three odorant-binding proteins are involved in the behavioral response of Sogatella furcifera to rice plant volatiles” (PeerJ, 2019)
